{"source": "patent US20110098325A1", "about": "“PYRIDINE BENZAMIDES AND PYRAZINE BENZAMIDES USED AS PKD INHIBITORS” (CANCER RESEARCH TECHNOLOGY LIMITED, priority 2006, published 2011)", "biological_target": "T1, Human full length PKD1 (Homo sapiens, UniProt Q15139)", "T1 construct": "Human full length PKD1 at ˜100 μg/mL purchased from Upstate Ltd; purchased Upstate Ltd 14-508", "T1 sequence (Q15139 1-912)": "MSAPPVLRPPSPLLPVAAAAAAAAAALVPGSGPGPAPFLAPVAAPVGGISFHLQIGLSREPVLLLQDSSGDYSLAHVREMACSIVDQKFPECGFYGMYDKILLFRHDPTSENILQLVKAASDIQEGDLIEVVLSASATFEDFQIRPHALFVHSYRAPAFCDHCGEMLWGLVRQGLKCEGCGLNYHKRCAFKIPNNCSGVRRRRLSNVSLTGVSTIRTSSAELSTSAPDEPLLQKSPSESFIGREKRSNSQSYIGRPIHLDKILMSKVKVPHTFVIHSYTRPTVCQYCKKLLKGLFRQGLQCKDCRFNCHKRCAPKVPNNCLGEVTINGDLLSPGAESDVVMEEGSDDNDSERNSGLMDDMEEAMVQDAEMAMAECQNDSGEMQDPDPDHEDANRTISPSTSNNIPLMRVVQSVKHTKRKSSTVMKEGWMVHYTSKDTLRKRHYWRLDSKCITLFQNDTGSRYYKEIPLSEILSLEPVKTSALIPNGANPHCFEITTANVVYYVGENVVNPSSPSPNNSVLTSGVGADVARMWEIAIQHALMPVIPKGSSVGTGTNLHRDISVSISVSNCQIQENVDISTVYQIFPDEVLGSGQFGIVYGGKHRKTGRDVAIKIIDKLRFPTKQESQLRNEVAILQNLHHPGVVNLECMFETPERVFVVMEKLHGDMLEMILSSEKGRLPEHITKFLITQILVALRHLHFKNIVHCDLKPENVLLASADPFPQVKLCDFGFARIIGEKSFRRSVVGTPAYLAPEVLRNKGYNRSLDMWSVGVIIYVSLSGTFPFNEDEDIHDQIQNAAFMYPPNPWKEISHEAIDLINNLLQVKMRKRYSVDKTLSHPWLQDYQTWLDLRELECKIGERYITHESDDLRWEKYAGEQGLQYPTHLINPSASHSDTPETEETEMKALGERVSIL", "experiment": "PKD1 (Human Full Length) Enzyme Activity Assay (IMAP fluorescence polarisation)", "format": "biochemical", "conditions": "10 μM ATP, 25 minutes, room temperature", "method": "Kinase Assay Reaction Buffer: This consisted of 0.22 μM filtered 25 mM HEPES and 2 mM MgCl2 pH 7.5.\nKinase Enzyme: Human full length PKD1 at ˜100 μg/mL purchased from Upstate Ltd (Product code 14-508) was obtained from aliquots stored at −70° C. It was prepared with a final concentration of 0.3 μg/mL by diluting 1:300 in Reaction Buffer (30 μL per 9 mL-5 mL per plate with an additional 4 mL dead volume) and vortexing prior to use.\nSubstrate: Fluorescein labelled glycogen synthase-derived peptide (FI)-KKLNRTLSVA (also known as MAPKAP K2 substrate) was obtained from Molecular Devices (Product code R7127). […]\nThe fluorescence polarisation of the substrate in each well was recorded using an analyst microplate reader (Molecular Devices) with a single read at Ex485 Em535 (Analyst settings: Z Height 5 mm, G Factor 0.95, Reads/well 1, Integration 100000 μs, Gain Sensitivity 2).\nPercentage inhibition was calculated based on activity of the test sample minus the average values in the blank wells relative to the average values measured in control wells minus the average values in the blank wells.\nIC50 values were calculated from 10 point dose sigmoid ‘dose-response’ curves using Xlfit software (IDBS inc, USA). […]"}
{"smiles": "COc1cc(-c2cc(-c3cccc(C(=O)NCCN(C)C)c3)cnc2N)ccc1O", "note": "[Y-059, 3-[6-Amino-5-(4-hydroxy-3-methoxy-phenyl)-pyridin-3-yl]-N-(2-dimethylamino-ethyl)-benzamide]", "values": [{"measurement": "IC50", "result": 6, "unit": "nM"}]}
{"smiles": "COc1cc(-c2nc(-c3cccc(C(=O)NCCN(C)C)c3)cnc2N)ccc1O", "note": "[X-017, 3-[5-Amino-6-(4-hydroxy-3-methoxy-phenyl)-pyrazin-2-yl]-N-(2-dimethylamino-ethyl)-benzamide]", "values": [{"measurement": "IC50", "result": 4, "unit": "nM"}]}
